Results as given in US10946016B2, “Solid forms of an epidermal growth factor receptor kinase inhibitor” (Celgene CAR LLC, priority 2012, dated 2021).

What was measured:
mutant EGFR kinase = assay: Enzymatic and cellular assays of EGFR kinase inhibition; format: biochemical
[1] = system: human non-small cell lung cancer cell; assay: Non-small cell lung cancer cell proliferation in vitro; format: cell-based
[2] = system: human non-small cell lung cancer cell; assay: Non-small cell lung cancer cell proliferation in vivo
[3] = Aqueous solubility: slurries in deionised water, HPLC; format: physicochemical; details: slurry in deionised water shaken ca. 24 hours
Method: Slurries of all each polymorphic form were created in deionised water and shaken for ca. 24 hours. The resulting solid was then analysed by HPLC to determine the concentration of material dissolved.

[4] = Dynamic vapour sorption (DVS) with post DVS XRPD; format: physicochemical
Method: For dynamic vapour sorption (DVS), approximately 10 mg of sample was placed into a wire mesh vapour sorption balance pan and loaded into a DVS-1 dynamic vapour sorption balance by Surface Measurement Systems. The sample was subjected to a ramping profile from 20-90% relative humidity (RH) at 10% increments, maintaining the sample at each step until a stable weight had been achieved (99.5% step completion). After completion of the sorption cycle, the sample was dried using the same procedure, but all the way down to 0% RH and finally taken back to the starting point of 20% RH. The weight change during the sorption/desorption cycles were plotted, allowing for the hygroscopic nature of the sample to be determined.

[5] = Stability at 40° C./75% RH for 1 week and 2 weeks (XRPD and HPLC); format: physicochemical; details: open container
Method: Samples of each form were exposed to an environment of 40° C./75% RH for 1 week and 2 week periods to determine stability. Resulting solids were analysed by XRPD and HPLC to establish if any changes had occurred.

[6] = Competitive slurries at ambient and 60° C. (polymorph stability studies); format: physicochemical; details: slurrying at ambient and 60° C.
Method: The results from the competitive slurries carried out at ambient (ca. 22° C.) and 60° C. are tabulated below.

[7] = XRPD after heating or drying (solid form conversion); format: physicochemical; details: heated to 115° C.
Method: X-ray powder diffraction (XRPD) analysis was carried out on a Siemens D5000, scanning the samples between 3 and 30 or 50° 2-theta. For samples <100 mg, ca. 5-10 mg of sample was gently compressed onto a glass slide which fitted into the sample holder. For samples >100 mg, ca. 100 mg of sample was gently compressed into a plastic sample holder, so that the sample surface was smooth and just above the level of the sample holder. Measurements were made as follows: In order to determine the relationship between Forms A and B, a sample of Form B was heated to 120° C. and then XRPD analysis was carried out. […] To determine whether Form C remains the same after losing the solvent present, a sample of Form C was heated to 120° C. (i.e., just past the temperature at which the solvent is removed) and then XRPD analysis was carried out. […] In order to determine whether Form E remains the same after losing the solvent present, a sample of Form E was heated to 120° C. (i.e., just past the temperature at which the solvent is lost) and then XRPD analysis was carried out. […] In order to determine whether Form F remains the same after losing the solvent present, a sample of Form F was heated to 120° C. (i.e., just past the temperature at which the solvent is lost) and then XRPD analysis was carried out. […] To examine whether Form H changes to Form A after heating to 115° C. (point after the solvent loss), the Form H material was heated to 115° C. and XRPD analysis and DSC analysis were then carried out. […] The DSC analysis (FIG. 49) indicated overlapping endotherms between ca. 115-135° C., followed by an exotherm at peak 143.9° C., likely indicating a polymorphic transition. A final endotherm was present at onset 202.7° C. (peak 206.6° C.) corresponding with the Form A melt.

[8] = TGA of dehydrated material after standing on the bench (water pick-up); format: physicochemical; details: heated to 115° C., then on the bench ca. 1 hour at ambient
Method: To test whether Form H picks up water after desolvating/dehydrating the material by heating to 115° C., a further test was carried out whereby Form H was heated to 115° C. in a TGA pan. The sample was then removed from the TGA pan and allowed to sit on the bench for ca. 1 hour. After 1 hour, another TGA was carried out up to 115° C. […] (FIG. 51).

C=CC(=O)Nc1cccc(Nc2nc(Nc3ccc(N4CCN(C(C)=O)CC4)cc3OC)ncc2C(F)(F)F)c1 [Compound 1, N-(3-(2-(4-(4-acetylpiperazin-1-yl)-2-methoxyphenylamino)-5-(trifluoromethyl)pyrimidin-4-ylamino)phenyl)acrylamide]
selectivity for mutant EGFR as compared to wild-type EGFR (mutant EGFR kinase): selective inhibitor of at least one mutation of EGFR | inhibition of mutant EGFR kinase (mutant EGFR kinase; enzymatic and cellular assays): selective covalent, irreversible inhibition of mutant EGFR kinase | inhibition of cell proliferation [1]: inhibit human non-small cell lung cancer cell proliferation | inhibition of cell proliferation [2]: inhibit human non-small cell lung cancer cell proliferation

C=CC(=O)Nc1cccc(Nc2nc(Nc3ccc(N4CCN(C(C)=O)CC4)cc3OC)ncc2C(F)(F)F)c1 [Form A, N-(3-(2-(4-(4-acetylpiperazin-1-yl)-2-methoxyphenylamino)-5-(trifluoromethyl)pyrimidin-4-ylamino)phenyl)acrylamide]
detection by HPLC analysis for the aqueous solubility [3]: could not be detected | aqueous solubility ([3]; assessment in words): poor | Post DVS XRPD (solid form) [4]: remained Form A | hygroscopicity (DVS) [4]: non-hygroscopic | DVS water uptake ([4]; between 20 and 70% RH): 0.87% | HPLC purity after storage ([5]; 1 week): ca. 97.5% | XRPD analysis after storage ([5]; 1 week): still be consistent with Form A, with some loss in crystallinity | HPLC purity after storage ([5]; 2 week): ca. 96.3% | XRPD analysis after storage ([5]; 2 week): still be consistent with Form A, however, it became poorly crystalline | relative polymorph stability [6]: likely the more stable form in comparison with Form B

C=CC(=O)Nc1cccc(Nc2nc(Nc3ccc(N4CCN(C(C)=O)CC4)cc3OC)ncc2C(F)(F)F)c1 [Form H, N-(3-(2-(4-(4-acetylpiperazin-1-yl)-2-methoxyphenylamino)-5-(trifluoromethyl)pyrimidin-4-ylamino)phenyl)acrylamide]
XRPD after heating [7]: still corresponded with Form H, with some loss in crystallinity | water pick-up of desolvated/dehydrated material [8]: picked up water upon standing at ambient conditions
